Species: Rattus norvegicus
Assay: Open TG-GATES - Regimen: Single
Format: toxicity, organism-based, Sprague-Dawley
Set-up: regimen Single, gender Male, age 6 weeks
Settings: in vivo, ip, 0.003 mg/kg, route intraperitoneal injection, dose 3 ug/Kg, dose level Middle; for APTT / Bas / Eos / Fbg / Hb / Ht / Lym / MCH / MCHC / MCV / Mono / Neu / PT / Plat / RBC / Ret / WBC: tissue Blood; for KIDNEY_L / KIDNEY_R / KIDNEY_TOTAL: tissue Kidney; for LIVER: tissue Liver; for A/G / ALP / ALT / AST / BUN / CRE / Ca / Cl / DBIL / GLC / IP / K / LDH / Na / PL / RALB / TBIL / TC / TG / TP / gamma-GTP: tissue Plasma

## H-KGDRLS-OH [TNF-ALPHA]
3 h
  TERMINAL_BW: 199 g
  APTT: 17.3 s
  Bas: 0%
  Eos: 0.4%
  Fbg: 265 mg/dL
  Hb: 13 g/dL
  Ht: 39.9%
  Lym: 70.4%
  MCH: 21.1 pg
  MCHC: 32.6%
  MCV: 64.9 fL
  Mono: 4.2%
  Neu: 23%
  PT: 15.9 s
  Plat: 112.9 x10_4/uL
  RBC: 614.6 x10_4/ul
  Ret: 9.2%
  WBC: 88.2 x10_2/uL
  KIDNEY_L: 0.9 g
  KIDNEY_R: 0.9 g
  KIDNEY_TOTAL: 1.8 g
  LIVER: 9.3 g
  A/G: 0.9
  ALP: 1480.4 IU/L
  ALT: 47.6 IU/L
  AST: 75.8 IU/L
  BUN: 10.8 mg/dL
  CRE: 0.2 mg/dL
  Ca: 10.8 mg/dL
  Cl: 104.8 meq/L
  DBIL: 0.01 mg/dL
  GLC: 162.2 mg/dL
  IP: 9.2 mg/dL
  K: 4.3 meq/L
  LDH: 68 IU/L
  Na: 141.6 meq/L
  PL: 137 mg/dL
  RALB: 2.5 g/dL
  TBIL: 0.052 mg/dL
  TC: 73 mg/dL
  TG: 61.8 mg/dL
  TP: 5.3 g/dL
  gamma-GTP: 1.4 IU/L
6 h
  TERMINAL_BW: 197.1 g
  APTT: 17.1 s
  Bas: 0%
  Eos: 0.4%
  Fbg: 321.4 mg/dL
  Hb: 13 g/dL
  Ht: 39.7%
  Lym: 63.4%
  MCH: 21.5 pg
  MCHC: 33%
  MCV: 65.1 fL
  Mono: 2.6%
  Neu: 32%
  PT: 15.1 s
  Plat: 110.6 x10_4/uL
  RBC: 610.4 x10_4/ul
  Ret: 8%
  WBC: 81.9 x10_2/uL
  KIDNEY_L: 0.9 g
  KIDNEY_R: 0.9 g
  KIDNEY_TOTAL: 1.8 g
  LIVER: 8.7 g
  A/G: 0.9
  ALP: 1155.6 IU/L
  ALT: 39.8 IU/L
  AST: 65.8 IU/L
  BUN: 8.6 mg/dL
  CRE: 0.2 mg/dL
  Ca: 10.7 mg/dL
  Cl: 105.6 meq/L
  DBIL: 0.008 mg/dL
  GLC: 170.4 mg/dL
  IP: 10.2 mg/dL
  K: 3.7 meq/L
  LDH: 72.8 IU/L
  Na: 143.4 meq/L
  PL: 147.6 mg/dL
  RALB: 2.5 g/dL
  TBIL: 0.06 mg/dL
  TC: 84.4 mg/dL
  TG: 27.2 mg/dL
  TP: 5.4 g/dL
  gamma-GTP: 1 IU/L
9 h
  TERMINAL_BW: 194.9 g
  APTT: 17.3 s
  Bas: 0%
  Eos: 0.4%
  Fbg: 380.6 mg/dL
  Hb: 12.9 g/dL
  Ht: 39.7%
  Lym: 66.2%
  MCH: 21.2 pg
  MCHC: 32.4%
  MCV: 65.5 fL
  Mono: 2.6%
  Neu: 29.8%
  PT: 15.4 s
  Plat: 104.9 x10_4/uL
  RBC: 606.6 x10_4/ul
  Ret: 8.3%
  WBC: 75.4 x10_2/uL
  KIDNEY_L: 0.9 g
  KIDNEY_R: 0.9 g
  KIDNEY_TOTAL: 1.8 g
  LIVER: 7.9 g
  A/G: 0.9
  ALP: 1301.4 IU/L
  ALT: 36.4 IU/L
  AST: 71.4 IU/L
  BUN: 7.6 mg/dL
  CRE: 0.2 mg/dL
  Ca: 10.6 mg/dL
  Cl: 105.6 meq/L
  DBIL: 0.004 mg/dL
  GLC: 159 mg/dL
  IP: 9.5 mg/dL
  K: 4 meq/L
  LDH: 46.6 IU/L
  Na: 142 meq/L
  PL: 155.4 mg/dL
  RALB: 2.5 g/dL
  TBIL: 0.062 mg/dL
  TC: 92.6 mg/dL
  TG: 25.2 mg/dL
  TP: 5.3 g/dL
  gamma-GTP: 1 IU/L
24 h
  TERMINAL_BW: 211 g
  APTT: 14.6 s
  Bas: 0%
  Eos: 1%
  Fbg: 361.4 mg/dL
  Hb: 12.8 g/dL
  Ht: 39.4%
  Lym: 77.6%
  MCH: 20.7 pg
  MCHC: 32.6%
  MCV: 63.6 fL
  Mono: 3.2%
  Neu: 14.8%
  PT: 15.5 s
  Plat: 115.8 x10_4/uL
  RBC: 619 x10_4/ul
  Ret: 8%
  WBC: 65.2 x10_2/uL
  KIDNEY_L: 0.9 g
  KIDNEY_R: 0.9 g
  KIDNEY_TOTAL: 1.8 g
  LIVER: 10 g
  A/G: 0.9
  ALP: 1666.2 IU/L
  ALT: 42.8 IU/L
  AST: 71.2 IU/L
  BUN: 16.4 mg/dL
  CRE: 0.2 mg/dL
  Ca: 11.1 mg/dL
  Cl: 106.8 meq/L
  DBIL: 0.01 mg/dL
  GLC: 177.8 mg/dL
  IP: 8.5 mg/dL
  K: 4.3 meq/L
  LDH: 74.6 IU/L
  Na: 142.4 meq/L
  PL: 155 mg/dL
  RALB: 2.6 g/dL
  TBIL: 0.042 mg/dL
  TC: 80.4 mg/dL
  TG: 80.8 mg/dL
  TP: 5.7 g/dL
  gamma-GTP: 1 IU/L

Reference: ChEMBL document CHEMBL3885861, “Open TG-GATES”
